Like-named read-outs stand apart in the source and are kept apart here.
Assays:
KRAS G12C = KRAS G12C (Homo sapiens, UniProt P01116, G12C); test: GDP-GTP exchange assay (KRAS_G12C exchange); assay type: biochemical; settings: bodipy-GDP loaded KRAS G12C 2.5 nM, SOS1 150 nM, GppNHp; 2 hours pre-incubation, 2 hours reaction; read-out: G12C_exchange
Protocol: Example A. GDP-GTP Exchange Assay
The inhibitor potency of the exemplified compounds was determined in a fluorescence based guanine nucleotide exchange assay, which measures the exchange of bodipy-GDP (fluorescently labeled GDP) for GppNHp (Non-hydrolyzable GTP analog) to generate the active state of KRAS in the presence of SOS1 (guanine nucleotide exchange factor). Inhibitors were serially diluted in DMSO and a volume of 0.1 μL was transferred to the wells of a black low volume 384-well plate. 5 μL/well volume of bodipy-loaded KRAS G12C diluted to 5 nM in assay buffer (25 mM Hepes pH 7.5, 50 mM NaCl, 10 mM MgCl2 and 0.01% Brij-35) was added to the plate and pre-incubated with inhibitor for 2 hours at ambient temperature. Appropriate controls (enzyme with no inhibitor or with a G12C inhibitor (AMG-510)) were included on the plate. The exchange was initiated by the addition of a 5 μL/well volume containing 1 mM GppNHp and 300 nM SOS1 in assay buffer. The 10 μL/well reaction concentration of the bodipy-loaded KRAS G12C, GppNHp, and SOS1 were 2.5 nM, 500 uM, and 150 nM, respectively. The reaction plates were incubated at ambient temperature for 2 hours, a time estimated for complete GDP-GTP exchange in the absence of inhibitor. For the KRAS G12D and G12V mutants, similar guanine nucleotide exchange assays were used with 2.5 nM as final concentration for the bodipy loaded KRAS proteins and with 4 hours and 3 hours incubation after adding GppNHp-SOS1 mixture for G12D and G12V respectively. A cyclic peptide described to selectively bind G12D mutant (Sakamoto et al., BBRC 484.3 (2017), 605-611) or internal compounds with confirmed binding were used as positive controls in the assay plates. Fluorescence intensities were measured on a PheraStar plate reader instrument (BMG Labtech) with excitation at 485 nm and emission at 520 nm.
Either GraphPad prism or XLfit was used to analyze the data. The IC50 values were derived by fitting the data to a four parameter logistic equation producing a sigmoidal dose-response curve with a variable Hill coefficient. Prism equation: Y=Bottom+(Top−Bottom)/(1+10^((Log lC50−X)*Hill slope)); XLfit equation: Y=(A+((B−A)/(1+((X/C)^D)))) where X is the logarithm of inhibitor concentration and Y is the response.

[1] = tested on: MIA PaCa-2 (KRAS G12C) cells; test: Cellular pERK HTRF assay (KRAS_G12C pERK); assay type: cell-based, human; settings: read-out: G12C_pERK
Protocol: Example C: Cellular pERK HTRF Assay
MIA PaCa-2 (KRAS G12C; ATCC® CRL-1420), A427 (KRAS G12D; ATCC® HTB53), HPAF-II (KRAS G12D; ATCC® CRL-1997) and NCI-H838 (KRAS WT; ATCC® CRL-5844) cells are purchased from ATCC and maintained in RPMI 1640 media supplemented with 10% FBS (Gibco/Life Technologies). The cells are plated at 5000 cells per well (8 uL) into Greiner 384-well low volume, flat-bottom, tissue culture treated white plates and incubated overnight at 37° C., 5% CO2. The next morning, test compound stock solutions are diluted in media at 3× the final concentration, and 4 uL are added to the cells. The plate is mixed by gentle rotation for 30 seconds (250 rpm) at room temperature. The cells are incubated with the KRAS G12C and G12D compounds for 4 hours or 2 hours respectively at 37° C., 5% CO2.
4 uL of 4× lysis buffer with blocking reagent (1:25) (Cisbio) are added to each well and plates are rotated gently (300 rpm) for 30 minutes at room temperature. 4 uL per well of Cisbio anti Phospho-ERK 1/2 d2 is mixed with anti Phospho-ERK 1/2 Cryptate (1:1) are added to each well, mixed by rotation and incubated overnight in the dark at room temperature. Plates are read on the Pherastar plate reader at 665 nm and 620 nm wavelengths. IC50 determination is performed by fitting the curve of inhibitor percent inhibition versus the log of the inhibitor concentration using the GraphPad Prism 7 software.

[2] = Homo sapiens, MIA PaCa-2, 4 hours incubation

Chain of KRAS G12C (P01116 1-188 isoform P01116-2 G12C): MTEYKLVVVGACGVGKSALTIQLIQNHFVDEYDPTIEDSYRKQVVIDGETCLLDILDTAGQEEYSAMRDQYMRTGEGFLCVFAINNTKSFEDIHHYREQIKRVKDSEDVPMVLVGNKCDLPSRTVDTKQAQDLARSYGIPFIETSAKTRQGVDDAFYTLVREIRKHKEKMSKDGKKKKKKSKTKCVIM

IC50 (KRAS G12C) [nM]	IC50 [1, 2] [nM]	IC50 ([1]; 4 hours incubation) [nM]	SMILES
≤ 100	≤ 100		C=CC(=O)N1CCC(n2cnc3c(OC[C@@H]4CCCN4C)nc4c(F)c(-c5c(C)ccc6[nH]ncc56)c(Cl)cc4c32)CC1CC#N (single isomer, unassigned) [Example 37a]
≤ 100	≤ 100		C=CC(=O)N1CCC(n2cnc3c(OC[C@@H]4CCCN4C)nc4c(F)c(-c5cc(O)ccc5C)c(Cl)cc4c32)CC1CC#N (single isomer, unassigned) [Example 39a]
≤ 100	≤ 100		C=CC(=O)N1CCC(n2cnc3c(OC[C@@H]4CCCN4C)nc4c(F)c(-c5c(C)c(Cl)cc6[nH]ncc56)c(Cl)cc4c32)CC1CC#N (single isomer, unassigned) [Example 40a]
≤ 100	≤ 100		C=CC(=O)N1CC[C@H](n2cnc3c(N4CC(N(C)C)C4)nc4c(F)c(-c5cc(O)cc6ccccc56)c(Cl)cc4c32)C[C@H]1CC#N (single isomer, unassigned) [Example 47a]
≤ 100	≤ 100		C=CC(=O)N1CC[C@H](n2cnc3c(N4CC(N(C)C)C4)nc4c(F)c(-c5cc(O)cc(C)c5C)c(Cl)cc4c32)C[C@H]1CC#N (single isomer, unassigned) [Example 52a]
≤ 100	≤ 100		C=CC(=O)N1CC[C@H](n2cnc3c(N4CC(N(C)C)C4)nc4c(F)c(-c5cc(O)ccc5C)c(Cl)cc4c32)C[C@H]1CC#N (single isomer, unassigned) [Example 53a]
≤ 100	≤ 100		C=CC(=O)N1CC[C@H](n2cnc3c(N4CC(N(C)C)C4)nc4c(F)c(-c5cc(O)ccc5Cl)c(Cl)cc4c32)C[C@H]1CC#N (single isomer, unassigned) [Example 54a]
≤ 100	≤ 100		C=CC(=O)N1CC[C@H](n2cnc3c(N4CC(N(C)C)C4)nc4c(F)c(-c5ccc(F)c6cccnc56)c(Cl)cc4c32)C[C@H]1CC#N (single isomer, unassigned) [Example 64a]
≤ 100	≤ 100		C=CC(=O)N1CC[C@H](n2cnc3c(N4CC(N(C)C)C4)nc4c(F)c(-c5cccc6cnccc56)c(Cl)cc4c32)C[C@H]1CC#N (single isomer, unassigned) [Example 70a]
≤ 100	≤ 100		C=CC(=O)N1CC[C@H](n2cnc3c(N4CC(N(C)C)C4)nc4c(F)c(-c5cccc6ccncc56)c(Cl)cc4c32)C[C@H]1CC#N (single isomer, unassigned) [Example 71a]
≤ 100		≤ 100	C=CC(=O)N1CC[C@H](n2cnc3c(N4CC(N(C)C)C4)nc4c(F)c(-c5cccc6ccncc56)c(Cl)cc4c32)C[C@H]1CC#N (single isomer, unassigned) [Example 71b]
≤ 100	≤ 100		C=CC(=O)N1CC[C@H](n2cnc3c(N4CC(N(C)C)C4)nc4c(F)c(-c5cccc6cccnc56)c(Cl)cc4c32)C[C@H]1CC#N (single isomer, unassigned) [Example 72a]
≤ 100	≤ 100		C=CC(=O)N1CC[C@H](n2cnc3c(N4CC(N(C)C)C4)nc4c(F)c(-c5cncc6ccccc56)c(Cl)cc4c32)C[C@H]1CC#N (single isomer, unassigned) [Example 73a]
≤ 100		≤ 100	C=CC(=O)N1CC[C@H](n2cnc3c(N4CC(N(C)C)C4)nc4c(F)c(-c5cncc6ccccc56)c(Cl)cc4c32)C[C@H]1CC#N (single isomer, unassigned) [Example 73b]
≤ 100	≤ 100		C=CC(=O)N1CC[C@H](n2cnc3c(N4CC(N(C)C)C4)nc4c(F)c(-c5ccnc6ccccc56)c(Cl)cc4c32)C[C@H]1CC#N (single isomer, unassigned) [Example 74a]
≤ 100	≤ 100		COC/C=C/C(=O)N1CC[C@H](n2cnc3c(N4CC(C)(N(C)C)C4)nc4c(F)c(-c5c(C)c(Cl)cc6[nH]ncc56)c(Cl)cc4c32)C[C@H]1CC#N (single isomer, unassigned) [Example 80a]
≤ 100	≤ 100		CC#CC(=O)N1CC[C@H](n2nnc3c(OC[C@@H]4CCCN4C)nc4c(F)c(-c5cccc(Cl)c5C)c(Cl)cc4c32)C[C@H]1CC#N (single isomer, unassigned) [Example 87a]
≤ 100	≤ 100		C=CC(=O)N1CC[C@H](n2cnc3c(OC[C@@H]4CCCN4C)nc4c(F)c(-c5cccc(Cl)c5C)c(Cl)cc4c32)C[C@H]1CC#N (single isomer, unassigned) [Example 118a]
≤ 100	≤ 100		C=CC(=O)N1CC[C@H](n2cnc3c(OC[C@H]4CCCN4C)nc4c(F)c(-c5cccc(Cl)c5C)c(Cl)cc4c32)C[C@H]1CC#N (single isomer, unassigned) [Example 119a]
≤ 100	≤ 100		C=CC(=O)N1CC[C@H](n2nnc3c(N4CC(N(C)C)C4)nc4c(F)c(-c5c(C)c(Cl)cc6c5cnn6C)c(Cl)cc4c32)C[C@H]1CC#N (single isomer, unassigned) [Example 150a]
≤ 100	≤ 100		COC/C=C/C(=O)N1CC[C@H](n2nnc3c(OC[C@@H]4CCCN4C)nc4c(F)c(-c5ccccc5C(F)(F)F)c(C)cc4c32)C[C@H]1CC#N (single isomer, unassigned) [Example 157a]
≤ 100	≤ 100		Cc1cc2c(nc(OC[C@@H]3CCCN3C)c3nnn([C@H]4CCN(C(=O)/C=C/CF)[C@H](CC#N)C4)c32)c(F)c1-c1ccccc1C(F)(F)F (single isomer, unassigned) [Example 159a]
≤ 100	≤ 100		C=CC(=O)N1CC[C@H](n2nnc3c(OC[C@@H]4CCCN4C)nc4c(F)c(-c5ccccc5C(F)(F)F)c(C)cc4c32)C[C@H]1CC#N (single isomer, unassigned) [Example 160a]
≤ 100	≤ 100		Cc1cc2c(nc(N3CC(N(C)C)C3)c3nnn([C@H]4CCN(C(=O)/C=C/CN(C)C)[C@H](CC#N)C4)c32)c(F)c1-c1ccccc1C(F)(F)F (single isomer, unassigned) [Example 163a]
≤ 100	≤ 100		C=CC(=O)N1CC[C@H](n2nnc3c(N4CC(N(C)C)C4)nc4c(F)c(-c5ccccc5C(F)(F)F)c(C)cc4c32)C[C@H]1CC#N (single isomer, unassigned) [Example 165a]
≤ 100	≤ 100		Cc1cc2c(nc(-n3ccnc3C)c3nnn([C@H]4CCN(C(=O)/C=C/CN(C)C)[C@H](CC#N)C4)c32)c(F)c1-c1ccccc1C(F)(F)F (single isomer, unassigned) [Example 167a]
≤ 100	≤ 100		Cc1cc2c(nc(OC[C@@H]3CCCN3C)c3nnn([C@H]4CCN(C(=O)/C=C/C(F)F)[C@H](CC#N)C4)c32)c(F)c1-c1cccnc1C(F)(F)F (single isomer, unassigned) [Example 168a]
≤ 100	≤ 100		CC#CC(=O)N1CC[C@H](n2nnc3c(N4CC(N(C)C)C4)nc4c(F)c(-c5c(C)c(Cl)cc6[nH]ncc56)c(Cl)cc4c32)C[C@H]1CC#N (single isomer, unassigned) [Example 178a]
≤ 100	≤ 100		C=CC(=O)N1CC[C@H](n2nnc3c(N4CC(N(C)C)C4)nc4c(F)c(-c5c(C)c(Cl)cc6[nH]ncc56)c(Cl)cc4c32)C[C@H]1CC#N (single isomer, unassigned) [Example 185a]

Source: patent publication US20210269434A1, “TRICYCLIC COMPOUNDS AS INHIBITORS OF KRAS” (Incyte Corporation, priority 2020, published 2021)
